These results are taken from patent US7026328B2, “Heterocyclic compounds which inhibit leukocyte adhesion mediated by α4 integrins” (Elan Pharmaceuticals, Inc., priority 2002, dated 2006).

A short description of data set [1]: Cassette Dosing and Serum Analysis for Determination of Bioavailability. The following applies: average AUC 0→12 h, male Sprague Dawley rats, single oral cassette dose (6 compounds, total dose 10 mg/kg), plasma. It is filed as in vivo, rat. Here is the method:
The cassette included 5 test articles and a standard compound, for a total dose of 10 mg/kg. Each compound/test article was converted to the sodium salt with equimolar 1 N NaOH and dissolved in water at 2 mg/mL. The cassette was prepared by mixing equal volumes of each of the six solutions. The cassette dosing solution was mixed well and then the pH was adjusted to 7.5–9. The dosing solution was prepared the day before the study and stirred overnight at room temperature.
Male Sprague Dawley (SD) rats from Charles River Laboratories, 6–8 weeks old were used in this screen. Rats were quarantined for at least one day and had continuous access to food and water. On the night before the administration of the cassette, the rats were fasted for approximately 16 h.
Four SD rats were assigned in each cassette. A single dose of the dosing solution was administered orally to each rat. The dosing volume (5 mL/kg) and time were recorded and rats were fed 2 h after dosing.
Blood samples were collected via cardiac puncture at the following time points: 4 h, 8 h and 12 h. Immediately prior to blood collection, rats were anesthetized with CO2 gas within 10–20 seconds. After the 12-h samples were collected, the rats were euthanized via CO2 asphyxiation followed by cervical dislocation.
Blood samples were kept in heparinized microtainer tubes under sub-ambient temperature (4° C.) before they were processed. Blood samples were centrifuged (10000 rpm for 5 minutes) and plasma samples were removed and stored in a −20° C. freezer until analyzed for drug levels. Drug levels in the plasma were analyzed using the following protocol for direct plasma precipitation.
The in vivo plasma samples were prepared in a 1.5 mL 96-well plate, by adding, in order, 100 μL of the test plasma, 150 μL of methanol, followed by vortexing for 10–20 seconds. 150 μL of 0.05 ng/μL of an Internal Standard in acetonitrile were added and vortexed for 30 seconds.
The standard curve samples were prepared in a 1.5 mL 96-well plate, by adding, in order, 100 μL of control mouse plasma, followed by 150 μL of methanol and vortexing for 10–20 seconds. 150 μL of 0.05 ng/μL of an Internal Standard in acetonitrile were added and vortexed for 30 seconds. The samples were spiked with 0–200 ng (10 concentrations) of the compound of interest in 50% methanol to obtain a standard curve range of 0.5 ng/mL–2,000 ng/mL. Again, the sample was vortexed for 30 seconds.
The samples were then spun for 20–30 minutes at 3000 rpm in an Eppendorf microfuge before 80–90% of supernatant was transferred into a clean 96-well plate. The organic solvent was then evaporated until the samples were dry (under N2 at 40° C./30–60 min (Zymark Turbovap)).
The residue was then dissolved in […] mobile phase (50% CH3OH/0.1% TFA). LC/MS/MS was then run using a PE-Sciex API-3000 triple quadurpole mass spectrometer (SN0749707), Perkin-Elmer, Series200auto-sampler, and shimadzu 10A pump. Acquisition was done with PE-Sciex Analyst (v1.1) and data analysis and quantification were accomplished using PE-Sciex Analyst (v1.1). A 5–50 μL sample volume was injected onto a reverse phase ThermoHypersil DASH-18 column (Keystone 2.0×20 mm, 5 μm, PN: 8823025-701) using a mobile phase of 25% CH3OH, 0.1% TFA-100% CH3OH, 0.1% TFA. The run time was about 8 minutes at a flow rate of about 300 μL/minutes.
The Area Under the Curve (AUC) was calculated using the linear trapezoidal rule from t=0 to the last sampling time tx (see Handbook of Basic Pharmacokinetics, Wolfgang A. Ritschel and Gregory L. Kearns, 5th ed, 1999). AUC^0→tx=S((Cn+Cn+1)/2))·(tn+1−tn)[(μg/mL)h]

Data set [2] has as its target T1, α4β1 integrin (Homo sapiens, UniProt P05556+P13612).
T1 construct: Jurkat™ cells (maintained in log phase growth) were labeled with Calcein AM; endogenous in cells; host or cells: Jurkat cells
The data set can be described thus: α4β1 Integrin Adhesion Assay: Jurkat Cell Adhesion to Human Plasma Fibronectin. It is filed as cell-based. The note with it: Jurkat cells. Here is the method:
96 well plates (Costar 3590 EIA plates) were coated with human fibronectin (Gibco/BRL, cat #33016–023) at a concentration of 10 μg/mL overnight at 4° C. The plates were then blocked with a solution of bovine serum albumin (BSA; 0.3%) in saline. Jurkat™ cells (maintained in log phase growth) were labeled with Calcein AM according to the manufacturer's instructions, and suspended at a concentration of 2×10^6 cells/mL in Hepes/Saline/BSA. The cells were then exposed to test and control compounds for 30 minutes at room temperature before transfer to individual wells of the fibronectin coated plate. Adhesion was allowed to occur for 35 minutes at 37° C. The wells were then washed by gentle aspiration and pipetting with fresh saline. Fluorescence associated with the remaining adherent cells was quantified using a fluorescence plate reader at EX 485/EM 530.
Cell cultures were prepared by first splitting the stationary phase Jurkat™ cells at 1:10 on day one, and 1:2 on day two to perform assay on day 3. The cells split 1:10 on day one were split 1:4 on day 3 for a day 4 assay.
The assay plates were prepared by first making a working solution of Gibco/BRL Human Fibronectin (cat #33016-023) in PBS++, at 10 μg/mL. A Costar 3590 EIA plate was then coated with 50 μL/well for 2 hours at room temperature (thought it can also be left overnight at 4° C.). Finally the plate was asperated and blocked with Hepes/Saline Buffer, 100 μL/well, for 1 hour at RT followed by washing 3× with 150 μL of PBS++.
Compound dilutions were accomplished by preparing 1:3 serial dilutions of compounds as follows. For each plate (4 compounds/plate) 600 μL were added to 4 Bio-Rad Titertubes in a Titertube rack. […] Using Falcon Flexiplates, 100 μL of Hepes/Saline buffer or human serum were added to rows B through G. A multi-channel pipetter set to 180 μL was used to with four tips spaced evenly the pipetter. Each set of four tubes was mixed 5 times and 180 μL of 2× compound was transferred to the first column of each compound dilution in Row B, leaving Row A empty. 180 μL were added to the other wells in Row A. Serial dilutions were performed down the plate by transferring 50 μL to the next dilution and mixing 5 times, changing tips each time after mixing.
A 20 μg/mL solution in Hepes/Saline buffer or human serum, of 21/6 antibody was the positive control and was set aside in a reagent trough to add to cell suspension plate.
The cell staining was accomplished by first harvesting the log-phase Jurkat™ cells by centrifugation in 50 mL tubes (1100 rpm for 5 minutes). The cells were resuspended in 50 mL PBS++, spun, and resuspend in 20 mL PBS++. The cells were stained by adding 20 μL of Calcein AM for 30 minutes RT. The volume was brought to 50 mL with Hepes/Saline buffer and the cells were counted, spun, and resuspend to 2×10^6 cells/mL in Hepes/Saline buffer or human serum.
The compounds were incubated using the following procedure. In a new flexiplate, 65 μL of stained cells were added to Rows B through H. Then 65 μL of 2× compounds were added to the appropriate rows following the plate setup and mixed three times. 65 μL of 2×-21/6 antibody were added to Row H and mixed 3×. Finally the plate was incubated at room temperature for 30 minutes.
Fibronectin adhesion was measured using a fluorescent plate reader at EX 485/EM 530 after the following work up procedure. After incubation, the cells were mixed three times and 100 μL were transfered to the Fibronectin coated plates and incubated at 37° C. for about 35 minutes. Each plate was washed, row by row, by gently pipetting 100 μL of RT. PBS++ down the sides of the wells and turning the plate 90 degrees to aspirate. This procedure was repeated for a total of 3 washes. Each well was filled with 100 μL after washing by pipetting down the side of the well.
An IC50 value was calculated for each compound, both in the presence of the human serum and in the absence of human serum.

T1 sequence (P13612 34-1032): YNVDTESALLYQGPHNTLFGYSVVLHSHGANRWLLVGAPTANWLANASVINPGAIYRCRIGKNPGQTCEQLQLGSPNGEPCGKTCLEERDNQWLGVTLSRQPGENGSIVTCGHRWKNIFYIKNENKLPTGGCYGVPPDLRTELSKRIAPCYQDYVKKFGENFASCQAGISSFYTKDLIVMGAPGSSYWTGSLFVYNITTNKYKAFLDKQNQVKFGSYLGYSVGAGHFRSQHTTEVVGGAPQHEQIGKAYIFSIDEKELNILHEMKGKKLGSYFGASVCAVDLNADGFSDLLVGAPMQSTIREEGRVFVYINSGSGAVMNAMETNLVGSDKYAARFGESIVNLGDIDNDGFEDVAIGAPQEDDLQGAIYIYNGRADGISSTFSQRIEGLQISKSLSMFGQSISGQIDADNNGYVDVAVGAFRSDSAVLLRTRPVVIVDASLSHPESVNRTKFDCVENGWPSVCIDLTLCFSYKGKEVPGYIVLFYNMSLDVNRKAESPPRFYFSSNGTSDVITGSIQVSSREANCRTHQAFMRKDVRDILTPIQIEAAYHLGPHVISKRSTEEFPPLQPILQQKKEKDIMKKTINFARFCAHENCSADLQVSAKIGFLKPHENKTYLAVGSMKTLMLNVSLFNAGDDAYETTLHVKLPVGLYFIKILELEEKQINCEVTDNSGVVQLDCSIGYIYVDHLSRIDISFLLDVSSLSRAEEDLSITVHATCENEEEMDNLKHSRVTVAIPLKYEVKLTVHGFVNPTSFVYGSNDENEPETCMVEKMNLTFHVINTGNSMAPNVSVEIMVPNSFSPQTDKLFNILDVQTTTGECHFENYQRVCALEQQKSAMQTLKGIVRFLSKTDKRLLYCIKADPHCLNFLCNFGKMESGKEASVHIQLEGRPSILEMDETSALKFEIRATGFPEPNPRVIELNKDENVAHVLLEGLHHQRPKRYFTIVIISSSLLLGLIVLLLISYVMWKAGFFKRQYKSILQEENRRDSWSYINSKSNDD
T1 sequence (P05556 21-798): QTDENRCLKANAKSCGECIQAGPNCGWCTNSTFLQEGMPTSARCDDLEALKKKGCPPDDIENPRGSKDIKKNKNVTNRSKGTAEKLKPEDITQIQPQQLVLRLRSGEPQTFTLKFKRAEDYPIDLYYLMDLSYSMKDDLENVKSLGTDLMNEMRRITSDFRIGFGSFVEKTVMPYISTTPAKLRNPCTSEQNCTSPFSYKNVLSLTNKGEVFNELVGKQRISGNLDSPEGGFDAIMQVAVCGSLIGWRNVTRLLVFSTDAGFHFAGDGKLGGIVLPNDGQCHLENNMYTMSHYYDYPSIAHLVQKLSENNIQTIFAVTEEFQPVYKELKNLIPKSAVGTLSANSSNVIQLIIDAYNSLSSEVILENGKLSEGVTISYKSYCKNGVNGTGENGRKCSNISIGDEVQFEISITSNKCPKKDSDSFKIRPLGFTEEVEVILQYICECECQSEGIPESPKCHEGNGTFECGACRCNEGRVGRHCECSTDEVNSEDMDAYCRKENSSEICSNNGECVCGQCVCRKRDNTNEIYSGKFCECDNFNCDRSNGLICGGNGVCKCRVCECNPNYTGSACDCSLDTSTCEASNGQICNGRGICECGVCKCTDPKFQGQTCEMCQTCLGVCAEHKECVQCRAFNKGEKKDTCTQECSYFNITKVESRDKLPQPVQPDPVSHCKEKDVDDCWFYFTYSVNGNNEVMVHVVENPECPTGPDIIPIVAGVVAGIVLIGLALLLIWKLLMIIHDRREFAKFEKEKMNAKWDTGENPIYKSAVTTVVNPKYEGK

By IC50 is commonly meant the concentration that inhibits the measured activity by half. The low end stands for greater potency in that assay, the high end for weaker potency in that assay. With `CCN(CC)c1ncc(N(C)S(=O)(=O)c2ccc(F)cc2)c(N[C@@H](Cc2ccc(OC(=O)N3CCCC3)cc2)C(=O)O)n1` [Example 3, N-(2-[N′,N′-diethylamino]-5-[N″-(4-fluorophenylsulfonyl)-N″-methylamino]pyrimidin-4-yl)-4′-(pyrrolidin-1-ylcarbonyloxy)-L-phenylalanine], the AUC in data set [1] is recorded as 22.271 (μg/mL)h. Moreover, the results for the half-maximal inhibitory concentration (IC50) in data set [2] (containing human serum) and in data set [2] (without the human serum) were 1.73 µM and 0.00651 µM, respectively.

With `C#CCN(c1cnc(N(CC)CC)nc1N[C@@H](Cc1ccc(OC(=O)N2CCC2)cc1)C(=O)O)S(=O)(=O)c1ccc(F)cc1F` [Example 17, N-(2-[N′,N′-diethylamino]-5-[N″-(2,4-difluorophenylsulfonyl)-N″-propargylamino]pyrimidin-4-yl)-4′-(azetidin-1-ylcarbonyloxy)-L-phenylalanine], in data set [1], the AUC was 0.8628 (μg/mL)h. Further, the IC50 is 0.125 µM in data set [2] (containing human serum) and 0.00524 µM in data set [2] (without the human serum).

`CCN(CC)c1ncc(N(C)S(=O)(=O)c2ccc(F)cc2F)c(N[C@@H](Cc2ccc(OC(=O)N3CCC3)cc2)C(=O)O)n1` [Example 13, N-(2-[N′,N′-diethylamino]-5-[N″-(2,4-difluorophenylsulfonyl)-N″-methylamino]pyrimidin-4-yl)-4′-(azetidin-1-ylcarbonyloxy)-L-phenylalanine]: the AUC in data set [1] is listed as 1.283 (μg/mL)h. The IC50 in data set [2] (containing human serum) was 0.0895 µM; in data set [2] (without the human serum), 0.00245 µM.

As to `CCN(CC)c1ncc(N(CC)S(=O)(=O)c2ccc(F)cc2)c(N[C@@H](Cc2ccc(OC(=O)N3CCCCC3)cc2)C(=O)O)n1` [Example 6, N-(2-[N′,N′-diethylamino]-5-[N″-(4-fluorophenylsulfonyl)-N″-ethylamino]pyrimidin-4-yl)-4′-(piperidin-1-ylcarbonyloxy)-L-phenylalanine], the AUC in data set [1] is 0.5125 (μg/mL)h. The half-inhibitory concentration (IC50) in data set [2] (containing human serum) was 0.702 µM; in data set [2] (without the human serum), 0.00467 µM.

With `CCN(CC)c1ncc(N(CC)S(=O)(=O)c2ccc(Cl)cc2)c(N[C@@H](Cc2ccc(OC(=O)N3CCC3)cc2)C(=O)O)n1` [Example 10, N-(2-[N′,N′-diethylamino]-5-[N″-(4-chlorophenylsulfonyl]-N″-ethylamino]pyrimidin-4-yl)-4′-(azetidin-1-ylcarbonyloxy)-L-phenylalanine], the AUC in data set [1] is recorded as 2.1113 (μg/mL)h. The values for the IC50 in data set [2] (containing human serum) and in data set [2] (without the human serum) were 0.0829 µM and 0.00406 µM, respectively.

For the compound `CCN(CC)c1ncc(N(CC)S(=O)(=O)c2ccc(F)cc2)c(N[C@@H](Cc2ccc(OC(=O)N3CCC3)cc2)C(=O)O)n1` [Example 7, N-(2-[N′,N′-diethylamino]-5-[N″-(4-fluorophenylsulfonyl)-N″-ethylamino]pyrimidin-4-yl)-4′-(azetidin-1-ylcarbonyloxy)-L-phenylalanine], in data set [1], the AUC is listed as 0.8979 (μg/mL)h. Further, the IC50 was 0.0862 µM in data set [2] (containing human serum) and 0.00163 µM in data set [2] (without the human serum).

With `CCN(CC)c1ncc(N(CC)S(=O)(=O)c2ccc(F)cc2F)c(N[C@@H](Cc2ccc(OC(=O)N3CCC3)cc2)C(=O)O)n1` [Example 14, N-(2-[N′,N′-diethylamino]-5-[N″-(2,4-difluorophenylsulfonyl)-N″-ethylamino]pyrimidin-4-yl)-4′-(azetidin-1-ylcarbonyloxy)-L-phenylalanine], the AUC in data set [1] is on record as 0.3566 (μg/mL)h. In addition, the IC50 in data set [2] (containing human serum) was 0.0515 µM; in data set [2] (without the human serum) it was 0.00339 µM.

As to `C#CCN(c1cnc(N(CC)CC)nc1N[C@@H](Cc1ccc(OC(=O)N2CCCC2)cc1)C(=O)O)S(=O)(=O)c1ccc(F)cc1F` [Example 16, N-(2-[N′,N′-diethylamino]-5-[N″-(2,4-difluorophenylsulfonyl)-N″-propargylamino]pyrimidin-4-yl)-4′-(pyrrolidin-1-ylcarbonyloxy)-L-phenylalanine], in data set [1], the AUC is given as 23.808 (μg/mL)h. Further, the IC50 in data set [2] (containing human serum) was 0.565 µM; in data set [2] (without the human serum), 0.0137 µM.
